From article PMC11157767 (Molecular Cancer, 2024) come the findings set out here.

Where two headings read alike, the source gives them in different places.

The test system of series [1] is TRIM24-MET-i PDOX. The conditions noted are these: vs vehicle.
Experimental: All treatments started 18 days after transplantation. Radiotherapy was administered at 0.5 Gy per day, delivering 10 Gy total.
Each line represents one mouse. The ends of lines indicate the onset of neurological symptoms and thereby the endpoints. Treatment started on day 13.
Series [2] in a line: in vitro. The conditions noted are these: mouse, plasma.
Series [3] relates to TRIM24-MET-r cells. The series can be described thus: 3-day dose-response assay, TRIM24-MET-r cells. Type of series: cell-based. The conditions noted are these: Homo sapiens.
A short description of series [4]: in vitro. The conditions noted are these: mouse, brain homogenate.
Series [5] deals with TRIM24-MET-i cells. The series can be described thus: 3-day dose-response assay, TRIM24-MET-i cells. Type of series: cell-based. Conditions: Homo sapiens.
A short description of series [6]: In vitro protein binding assay, culture media. Type of series: in vitro ADME. The conditions noted are these: read-out: unbound drug fraction, Culture Media, AVG.

Broadly, the fraction unbound is the share of the substance not bound to proteins or other matrix. In general, EC50 refers to the concentration that produces a half-maximal response. The term EC90 denotes the point of the concentration-response curve where the effect stands at 90%.

For the molecule `COc1cc2nccc(Oc3ccc(NC(=O)C4(C(=O)Nc5ccc(F)cc5)CC4)cc3)c2cc1OC` [Cabozantinib], in series [1], the “increase of median survival” value stood at 15.5 days. Besides, the results for the fraction unbound in series [2], in series [4] and in series [6] were 0.0017, 0.0025 and 0.033, respectively. In addition, the EC50 in series [3] (72 h, read-out: EC50 Total) amounted to 369 nM; in series [3] (read-out: EC50 Unbound), 12.2 nM; in series [5] (72 h, read-out: EC50 Total), 30.3 nM; in series [5] (read-out: EC50 Unbound) it was 1 nM. Besides, the EC90 in series [3] (72 h, read-out: EC90 Total) came out at 44900 nM; in series [3] (read-out: EC90 Unbound), 1480 nM; in series [5] (72 h, read-out: EC90 Total), 556 nM; in series [5] (read-out: EC90 Unbound) it was 18.3 nM.
